Assay results taken from US11566004B2, “Process for the preparation of bromodomain inhibitor” (Celgene Quanticel Research, Inc., priority 2018, dated 2023).
Values after ≈ are worked out from the molar mass of the structure shown. Read-outs that look alike come from different tables or passages of the source.

Columns and labels:
[1] = Solubility of bromination starting material, product and impurity in CH2Cl2 (with or without 10% H2SO4); assay type: physicochemical; conditions: for Solubility in CH2Cl2, 10% H2SO4, 10° C.: CH2Cl2 with 10% H2SO4, 10° C.; for Solubility in CH2Cl2, 10% H2SO4, 20° C.: CH2Cl2 with 10% H2SO4, 20° C.; for Solubility in CH2Cl2, 10% H2SO4, 30° C.: CH2Cl2 with 10% H2SO4, 30° C.
Procedure: This solubility difference is exploited by performing the reaction at a high concentration to drive Compound 5 out of solution once formed, thereby minimizing its ability to react further with the brominating reagent to form Compound 5-a diBr. The reaction is seeded with Compound 5 to initiate its crystallization.

[2] = Solubility of Compound 1 in process solvents (ICH class solvents, NMP, DMAc, formic acid); assay type: physicochemical; conditions: for solubility: organic solvent or mixture
Text: The final isolation of Compound 1 requires a polish filtration. For this, the batch must be completely soluble.
The solubility curve of Compound 1 in formic acid-Water is quite steep (see FIG. 7), which enables a volumetrically efficient process.

bromodomain 4 (BRD4) = bromodomain 4 (BRD4) (Homo sapiens, UniProt O60885); conditions: preliminary in vitro studies; see U.S. Pat. No. 9,034,900; cited from earlier work
[3] = test system: Raji, human Burkitts lymphoma cells; conditions: see U.S. Pat. No. 9,034,900; cited from earlier work
[4] = test system: HL-60, human proleukemia cells; conditions: HL-60 cells; see U.S. Pat. No. 9,034,900; cited from earlier work
[5] = test system: NCI-H460, human non-small cell lung cancer cells; conditions: see U.S. Pat. No. 9,034,900; cited from earlier work
[6] = Solid phase and solution stability of boronic esters; assay type: physicochemical
Text: The final bond forming step to Compound 1 is a Suzuki-Miyaura coupling between Compounds 2 and 3, as shown in Scheme 3 below (Norio, M. and Suzuki, A., Chem. Rev., 95(7), 2457-2483 (1995)). […] The pinacolatoboronate of the O-alkyl phenol, Compound 7, had acceptable solid phase stability and could be isolated via crystallization.
This was particularly problematic as the isolation process involved a solvent exchange from 2-MeTHF (2-methyl tetrahydrofuran) to iPrOAc (isopropyl acetate), which is not a fast unit operation on scale.

Row | Solubility in CH2Cl2, 10° C. [1] | Solubility in CH2Cl2, 20° C. [1] | Solubility in CH2Cl2, 30° C. [1] | Solubility in CH2Cl2, 10% H2SO4, 10° C. [1] | Solubility in CH2Cl2, 10% H2SO4, 20° C. [1] | Solubility in CH2Cl2, 10% H2SO4, 30° C. [1] | SMILES | further results
1 | 30 mg/mL (≈ 174 mM) | 46 mg/mL (≈ 267 mM) | 198 mg/mL (≈ 1150 mM) | 19 mg/mL (≈ 110 mM) | 51 mg/mL (≈ 296 mM) | 390 mg/mL (≈ 2260 mM) | CS(=O)(=O)c1ccc(O)cc1 [Compound 4, 4-(methylsulfonyl)phenol] | –
2 | 6 mg/mL (≈ 23.9 mM) | 8 mg/mL (≈ 31.9 mM) | 20 mg/mL (≈ 79.6 mM) | 5 mg/mL (≈ 19.9 mM) | 8 mg/mL (≈ 31.9 mM) | 11 mg/mL (≈ 43.8 mM) | CS(=O)(=O)c1ccc(O)c(Br)c1 [Compound 5] | –
3 | 5 mg/mL (≈ 15.2 mM) | 7 mg/mL (≈ 21.2 mM) | 10 mg/mL (≈ 30.3 mM) | 5 mg/mL (≈ 15.2 mM) | 7 mg/mL (≈ 21.2 mM) | 14 mg/mL (≈ 42.4 mM) | CS(=O)(=O)c1cc(Br)c(O)c(Br)c1 [Compound 5-a diBr] | –
4 | – | – | – | – | – | – | Cn1cc(-c2cc(S(C)(=O)=O)ccc2OCC2CC2)c2ccccc2c1=O [Compound 1, 4-[2-(cyclopropylmethoxy)-S-methylsulfonylphenyl]-2-methylisoquinolin-1-one] | Solubility in almost all ICH Class 3 and common Class 2 (e.g. THF, MeCN) solvents ([2]; ICH Class 3 and common Class 2 solvents): low solubility; solubility ([2]; N-methyl-2-pyrrolidone (NMP), read-out: Solubility in N-methyl-2-pyrrolidone (NMP)): > 50 mg/mL; solubility ([2]; dimethylacetamide (DMAc), read-out: Solubility in dimethylacetamide (DMAc)): > 50 mg/mL; solubility ([2]; formic acid, 20° C., read-out: Solubility in formic acid): > 250 mg/mL; Solubility in a warm MeCN-water mix ([2]; warm MeCN-water mix): reasonable solubility; BRD4 inhibition (bromodomain 4 (BRD4)): observed; other cancer-related inhibitory activity [3]: observed; other cancer-related inhibitory activity [4]: observed; other cancer-related inhibitory activity [5]: observed
5 | – | – | – | – | – | – | CC1(C)OB(c2cc(S(C)(=O)=O)ccc2OCC2CC2)OC1(C)C [Compound 7] | Solution stability ([6]; in solution, decomposing primarily to proteodeborylated compound 10): poor; Solid phase stability ([6]; solid phase): acceptable
